The record followed here is article PMC8667898, “Topo II inhibition and DNA intercalation by new phthalazine-based derivatives as potent anticancer agents: design, synthesis, anti-proliferative, docking, and in vivo studies” (Journal of Enzyme Inhibition and Medicinal Chemistry, 2021).

One data set relates to Calf thymus DNA. Description: DNA intercalation assay (DNA/methyl green colorimetric assay). Format: binding. As to conditions: three independent experiments. The method, then: (§1) The data represented the mean of three independent experiments in triplicate and were expressed as means ± SD. […]
4.2.2. DNA intercalation assay (DNA/methyl green colorimetric assay)
Affinity of some compounds for DNA-binding was examined in vitro using DNA/methyl green assay using doxorubicin as a positive control. In this test, a mixture of methyl green (20 mg) and Calf thymus DNA (10 mg) (Sigma– Aldrich) were suspended in 0.05 M TrisHCl buffer (100 mL, pH 7.5) containing 7.5 mM MgSO4. This mixture was stirred continuously for 24 h at 37 °C. Then, ethanolic solution of the test compounds was pitted into the wells of a 96-well microtiter tray at a concentration of 10, 100 and 1000 µM. The excess solvent was removed from each well under vacuum, with subsequent addition of 200 µL of the DNA/methyl green solution. The test samples were incubated for 24 h in dark at ambient temperature. After that, absorbance of each sample was determined at 642.5–645 nm. In this test, the methyl green dye reversibly binds to DNA to form persistent colored complex of DNA/methyl green. This color still stables at neutral pH. When the DNA intercalators were added, the methyl green was displaced from DNA with addition of H2O molecule to the dye resulting in formation of the colorless carbinol leading to a decrease in spectrophotometric absorbance. ΔA value (the difference between DNA/methyl green complex and free cabinol) provides the simplest means for detecting the DNA-binding affinity and relative binding strength. IC50′s were determined by linear regression of data plotted on a semi -log scale and the data were compared with doxorubicin as standard DNA intercalator . […]

A short description of data set [1]: Hematological and biochemical blood assays in SEC-bearing mice. The data set is classed as in vivo, Swiss albino mice. As to conditions: 5 mg/kg BW, Mean ± SEM (n = 7). The method, then: At the end of the experiment, animals from different groups were sacrificed, and blood samples were collected for hematological parameters, including Hb, RBC’s, and WBC’s levels, and serum for determination of liver enzymes ALT, AST levels, and proteins.
(§2) The experimental animals were randomly divided into four groups. Group 1 served as the normal saline control (5 ml/kg B.Wt., I.P.). Group 2 served as the SEC control (1 × 10^6 cells/mouse). Group 3 served as the compound-treated group (5 mg/kg B.Wt., I.P.). […] Bodyweight and survival were recorded daily until the 24th day in both treated and control groups. At the end of the experiment, the blood of each group was collected under light anaesthesia to the estimate of hematological and biochemical assays. The anaesthetised animals were then sacrificed for evaluation of the antitumor activity and histopathological examination.
At the end of the experiment, animals from different groups were sacrificed, and blood samples were collected for hematological parameters including, Hb, RBC’s, and WBC’s levels, and serum for determination of liver enzymes ALT, AST levels, and proteins. Complete blood count (CBC) was investigated using the Abbott CELL-DYN®1800 automated haematology analyser (USA) using ready-made kits (Abbott Laboratories, Abbott Park, IL, USA). Activities of aspartate aminotransferase (AST) and alanine aminotransferase (ALT) were evaluated using commercial kits (ELITech clinical systems, France). Serum albumin level was determined by kit purchased from STANBIO Company (USA). Protein content was determined by colorimetric method using ready-made kits produced by Instrumentation Laboratory SpA, Inova diagnostics, Milano, Italy.

Data set [2] is described as follows: Histopathological examination of liver tissues of SEC-bearing mice. Particulars: H&E stain, ×200. The data set is classed as in vivo, Swiss albino mice. The procedure:
as §2
Specimens of liver-sacrificed mice were fixed in 10% saline formalin. The fixed liver specimens were dehydrated in ascending series of ethyl alcohol and embedded in paraffin. Sections at […] thicknesses were stained with haematoxylin and eosin and examined under the light microscope.

The test system of data set [3] is Solid Ehrlich Carcinoma (SEC). Description: In vivo antitumor activity against Solid Ehrlich Carcinoma. Set-up: species or system Swiss albino mice. Particulars: SEC-bearing mice, 5 mg/kg BW I.P. The method, then:
To examine the in vivo anticancer activity of compound 9d, adult female Swiss albino mice (30 mice) inoculated with I.P. injection of Solid Ehrlich Carcinoma (SEC) tumour cell lines in a volume of 0.2 ml physiological saline contains 1 × 10^6 viable cells for 24 h.
These mice were randomly divided into four groups (7 mice/group). […] Bodyweight and survival were recorded daily until the 24th day in both treated and control groups. At the end of the experiment, the blood of each group was collected under light anaesthesia for the estimation of hematological and biochemical assays. The anaesthetised animals were then sacrificed to evaluate of the antitumor activity and to conduct hematological, biochemical, and histopathological assays, Figure 3.
Adult female Swiss albino mice purchased from Theodor Bilharzia Research Institute, Giza, Egypt, with an average bodyweight of (18–23) g were used. Mice were housed under constant conditions of 12 h light/dark cycle in a […], with free access to standard laboratory mice food and water. All procedures related to care and maintenance of the animals were performed according to the international guiding principles for animal research and approved by the Faculty of Science, Suez Canal University bioethics and animal ethics committee (Approval number REC-07–2021).
Solid Ehrlich carcinoma (SEC) was purchased from the National Cancer Institute (Cairo University, Egypt). The tumour cell line was proliferated in mice through serial intraperitoneal (I.P.) transplantation of a volume of 0.2 ml physiological saline contains 1 × 10^6 viable cells for 24 h. SEC cells were collected 7 days after I.P. implantation. The harvested cells were diluted with saline to obtain a concentration of 5 × 10^6 viable SEC cells/mL. A volume of 0.2 ml saline contains 1 × 10^6 SEC cells that were I.P. implanted into each normal mouse. SEC cells (1 × 10^6 tumour cells/mouse) were implanted subcutaneously into the right thigh of the hind limb.
as §2
It includes tumour volume, weight, and tumour inhibition ratio (TIR%). Time interval measurements of tumour volume using digital Vernier calliper (Tricle Brand, Shanghai, China). Measure tumour length and width using a clipper and then calculate tumour volume using formulations V = (L × W × W)/2, where V is tumour volume, W is tumour width, L is tumour length. While TIR% was calculated according to the following equation Tumor volume (Control)−Tumor volume (treated)/Tumor volume (control)× 100.

Data set [4] relates to HCT-116 cells (colorectal carcinoma). Description: MTT anti-proliferative assay, HCT-116. Format: cell-based, human. Particulars: Homo sapiens, HCT-116, MTT, mean ± SD of three separate experiments; read-out: In vitro Cytotoxicity IC50 HCT-116. The method, then:
Anti-proliferative activities of the target compounds were assessed via the standard MTT method[38–40] against three cancer cell lines, namely, hepatocellular carcinoma (HepG-2), colorectal carcinoma (HCT-116), and human breast adenocarcinoma (MCF-7). Doxorubicin was used in this test as a positive control.
Anti-proliferative activity of the synthesised compounds was estimated using the MTT assay protocol[8]^,[38–40] as shown in Supplementary data.
4.2.1. In vitro anti-proliferative activity against MCF-7, HepG-2 and HCT-116 The cells were cultured in RPMI-1640 medium supplemented with 10% fetal bovine serum (FBS), penicillin (100 unit /mL) and streptomycin sulphate (100µg/mL) at 37 °C in a 5% CO2 incubator.
Then, cells were dropped in 96-well plates at a density of 3-8 × 10^3 cells/well and incubated for two days in a 5% CO2 incubator at 37 °C. Then, the cells were treated with the synthesized compounds and the cell cultures were continued incubated for 24 h. However, Different concentrations of the compound under test (0.0, 5.0, 12.5, 25.0 and 50 mg/ml) were added to the cell monolayer. Then, (3-[4,5-dimethylthiazol-2-yl]- 2,5-diphenyltetrazolium bromide) MTT solution (20 µl, 5mg/mL) was added to each well and incubated for additional 4 h. The formed purple crystals of MTT-formazan were dissolved in 100 µl DMSO each well; the absorbance of each well was measured at 570 nm using a plate reader (EXL 800, USA). All of the compounds were tested three times. The relative cell viability in percentage was calculated. The results for IC50 values of the active compounds are […]
as §1
of the cells could survive. […]
A general note: Tetrazolium assays rely on reduction of a dye to a coloured formazan, in cell work by metabolically active cells.

Usually IC50 stands for the concentration that inhibits the measured activity by half. `COc1cccc2c1C(=O)c1c(O)c3c(c(O)c1C2=O)C[C@@](O)(C(=O)CO)C[C@@H]3O[C@H]1C[C@H](N)[C@H](O)[C@H](C)O1` [Doxorubicin, reference compound]: half-maximal inhibition in the data set with Calf thymus DNA (IC50) was put at 31.3 ± 1.8 µM. Besides, in data set [1], the Hb was found to be 7.82 ± 0.27 g/dL, the RBCs count is recorded as 5.26 ± 0.38 ×10^6/µL, the “Total Protein” value was 6.73 ± 0.26 g/dL and the WBCs count is 4.11 ± 0.57 ×10^3/µL. The “Histopathological finding in liver tissue” value in data set [2] was “tissue enhancement like normal group, but still, some hydropic degeneration, pyknosis (arrows) and karyolysis (arrowhead) were shown”. In data set [3], this compound registered a tumour volume of 22 mm^3. The “reduction of the increase in solid tumour mass” value in data set [3] (compared to SEC control) was 59.8%. This compound gave a solid tumour mass in data set [3] (SEC control 194 mg) of 78 mg. For the same compound, the IC50 in data set [4] was determined as 9.62 ± 0.5 µM.
